Test results reported in publication PMC9501377, “New Diarylamine KV10.1 Inhibitors and Their Anticancer Potential” (Pharmaceutics, 2022).

Each compound was assayed against T1, KV10.1 (Eag1) (Homo sapiens, UniProt O95259) (assay: Whole-cell patch-clamp on stably transfected HEK-293 cells expressing KV10.1). Conditions: 10 μM, HEK-293 cells, patch-clamp, mean ± SEM.
T1 construct: expressed in transfected cells; host or cells: HEK-293 (stably transfected)
T1 sequence (O95259 1-962 isoform O95259-2): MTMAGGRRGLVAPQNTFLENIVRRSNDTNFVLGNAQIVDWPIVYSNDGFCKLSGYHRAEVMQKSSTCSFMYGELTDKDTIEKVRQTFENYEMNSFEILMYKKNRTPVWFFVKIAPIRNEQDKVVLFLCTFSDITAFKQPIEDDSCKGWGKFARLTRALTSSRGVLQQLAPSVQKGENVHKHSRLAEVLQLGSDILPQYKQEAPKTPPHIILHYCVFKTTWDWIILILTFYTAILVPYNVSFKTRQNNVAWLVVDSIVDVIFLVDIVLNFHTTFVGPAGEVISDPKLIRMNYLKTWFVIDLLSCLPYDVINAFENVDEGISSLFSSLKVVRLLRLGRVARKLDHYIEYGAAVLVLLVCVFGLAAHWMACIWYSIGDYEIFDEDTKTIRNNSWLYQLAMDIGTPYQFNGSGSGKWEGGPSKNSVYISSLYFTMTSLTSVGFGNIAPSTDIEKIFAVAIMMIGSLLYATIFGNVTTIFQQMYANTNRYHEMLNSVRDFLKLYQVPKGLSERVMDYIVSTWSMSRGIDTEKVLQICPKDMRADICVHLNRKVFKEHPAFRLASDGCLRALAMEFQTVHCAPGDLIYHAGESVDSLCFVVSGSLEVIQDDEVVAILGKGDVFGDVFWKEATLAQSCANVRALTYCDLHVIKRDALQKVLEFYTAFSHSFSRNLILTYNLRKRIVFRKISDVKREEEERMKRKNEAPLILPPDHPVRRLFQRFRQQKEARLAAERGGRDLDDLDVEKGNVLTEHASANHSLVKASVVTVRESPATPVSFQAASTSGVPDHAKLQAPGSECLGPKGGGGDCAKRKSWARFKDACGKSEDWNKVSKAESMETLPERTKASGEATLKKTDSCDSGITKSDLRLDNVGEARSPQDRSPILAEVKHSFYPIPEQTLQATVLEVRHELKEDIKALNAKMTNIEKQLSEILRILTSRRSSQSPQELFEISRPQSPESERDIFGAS
Format: cell-based
Protocol: For whole-cell patch-clamp measurements, stably transfected HEK-293 cells expressing KV10.1 [26, 27, 28] were grown in DMEM with 10% FCS and 300 µg/mL Zeocin on glass coverslips coated with fibronectin. All experiments were conducted at room temperature under perfusion by gravity with extracellular solution (160 mM NaCl, 2.5 mM KCl, 2 mM CaCl2, 1 mM MgCl2, 10 mM Hepes pH 7.4 with NaOH, 8 mM glucose). Pipettes were made from #1 glass capillaries (WPI) and had 1–3 MΩ resistance. The intracellular solution contained 100 mM KCl, 45 mM N-methyl-D-glucamine, 10 mM 1,2-bis(o-aminophenoxy)ethane-N,N,N′,N′-tetraacetic acid (BAPTA), 10 mM Hepes pH 7.35. Stimulation was applied and data were acquired with an EPC10 Plus amplifier (HEKA Elektronik) controlled with Patch Master software. Compounds were applied with an 8-channel fast solution exchanger (ALA). Compounds were prepared to a stock concentration of 10 mM in DMSO. The control solution contained 0.5% DMSO. Stimuli consisted of 500 ms depolarizations to +40 mV.
All electrophysiological data are presented as means ± SEM of n ≥ 3 independent experiments unless otherwise indicated. Oocyte data were analysed using pClamp Clampfit 10.4 (Molecular Devices, Downingtown, PA, USA) and OriginPro 9 (Originlab, Northampton, MA, USA) or GraphPad Prism 8 software (GraphPad Software, Inc., San Diego, CA, USA). Patch-clamp data analysis was performed using FitMaster (HEKA Electronics), IgorPro (Wavemetrics, Inc., Lake Oswego, OR, USA) and GraphPad Prism 9 (GraphPad Software, Inc., San Diego, CA, USA). The Dunnett test and one-way ANOVA were performed to calculate the significance of the induced inhibition compared to the control (p < 0.05).

% of Kv10.1 Inhibition at 10 μM (HEK-293 Cells)	Compound
inactive	O=[N+]([O-])c1cc(C(F)(F)F)ccc1Nc1ccc(OCc2ccccc2)cc1 [Compound 14, N-(4-(Benzyloxy)phenyl)-2-nitro-4-(trifluoromethyl)aniline]
12.6 ± 6.4%	Methyl 2-((4-(2-hydroxy-3-morpholinopropoxy)phenyl)amino)benzoate [Compound 5e]

Same assay, conditions: HEK293; 1 μM, HEK-293 cells, patch-clamp, mean ± SEM

inhibition at 1 µM [%]	Compound
28.4 ± 12.1	CN(C)CCOc1c(Cl)cc(Nc2ccc(C(F)(F)F)cc2[N+](=O)[O-])cc1Cl [Compound 18c, 3,5-Dichloro-4-(2-(dimethylamino)ethoxy)-N-(2-nitro-4-(trifluoromethyl)phenyl)aniline]
38.2 ± 1.4	CCN(CC)CCOc1c(Br)cc(Nc2ccc(C(F)(F)F)cc2[N+](=O)[O-])cc1Br [Compound 17b, 3,5-Dibromo-4-(2-(diethylamino)ethoxy)-N-(2-nitro-4-(trifluoromethyl)phenyl)aniline]
66.5 ± 5.5	CCN(CC)CCOc1c(Cl)cc(Nc2ccc(C(F)(F)F)cc2[N+](=O)[O-])cc1Cl [Compound 17c, 3,5-Dichloro-4-(2-(diethylamino)ethoxy)-N-(2-nitro-4-(trifluoromethyl)phenyl)aniline]
73.5 ± 0.5	CN(C)CCOc1c(Br)cc(Nc2ccc(C(F)(F)F)cc2[N+](=O)[O-])cc1Br [Compound 18b, 3,5-Dibromo-4-(2-(dimethylamino)ethoxy)-N-(2-nitro-4-(trifluoromethyl)phenyl)aniline]

Same assay, conditions: HEK293; 10 μM, HEK-293 cells, patch-clamp, mean ± SEM

Compound	inhibition at 10 µM [%]
O=[N+]([O-])c1cc(C(F)(F)F)ccc1Nc1ccc(OCc2ccccc2)cc1 [Compound 14, N-(4-(Benzyloxy)phenyl)-2-nitro-4-(trifluoromethyl)aniline]	3.3 ± 1.7
O=[N+]([O-])c1cc(C(F)(F)F)ccc1Oc1ccc(OCC(O)CN2CCOCC2)cc1 (centres unmarked) [Compound 5b, 1-Morpholino-3-(4-(2-nitro-4-(trifluoromethyl)phenoxy)phenoxy)propan-2-ol]	2.9 ± 5.3
COC(=O)c1ccccc1Oc1ccc(OCC(O)CN2CCOCC2)cc1 (centres unmarked) [Compound 5a, Methyl 2-(4-(2-hydroxy-3-morpholinopropoxy)phenoxy)benzoate]	4.1 ± 2.6
CN(C)CC(O)COc1ccc(Nc2ccc([N+](=O)[O-])cc2[N+](=O)[O-])cc1 (centres unmarked) [Compound 6d, 1-(Dimethylamino)-3-(4-((2,4-dinitrophenyl)amino)phenoxy)propan-2-ol]	61.9 ± 9
COC(=O)c1ccccc1Nc1ccc(OCC(O)CN2CCOCC2)cc1 (centres unmarked) [Compound 5d, Methyl 2-((4-(2-hydroxy-3-morpholinopropoxy)phenyl)amino)benzoate]	2.7 ± 1.2
O=[N+]([O-])c1cc(C(F)(F)F)ccc1Nc1ccc(OCCN2CCOCC2)cc1 [Compound 13, N-(4-(2-Morpholinoethoxy)phenyl)-2-nitro-4-(trifluoromethyl)aniline]	62.4 ± 3.9
O=[N+]([O-])c1cc(C(F)(F)F)ccc1Nc1ccc(OCCN2CCCCC2)cc1 [Compound 20, 2-Nitro-N-(4-(2-(piperidin-1-yl)ethoxy)phenyl)-4-(trifluoromethyl)aniline]	65 ± 6
O=[N+]([O-])c1cc(C(F)(F)F)ccc1Nc1ccc(OCCN2CCCC2)cc1 [Compound 19, 2-Nitro-N-(4-(2-(pyrrolidin-1-yl)ethoxy)phenyl)-4-(trifluoromethyl)aniline]	68.4 ± 14.8
O=[N+]([O-])c1cc(C(F)(F)F)ccc1Nc1ccc(OCCN2CCCCCC2)cc1 [Compound 21, N-(4-(2-(Azepan-1-yl)ethoxy)phenyl)-2-nitro-4-(trifluoromethyl)aniline]	71 ± 4.12
O=C(Nc1ccc(OCC(O)CN2CCOCC2)cc1)c1ccc(C(F)(F)F)cc1[N+](=O)[O-] (centres unmarked) [Compound 5c, N-(4-(2-Hydroxy-3-morpholinopropoxy)phenyl)-2-nitro-4-(trifluoromethyl)benzamide]	7.5 ± 3.5
O=[N+]([O-])c1ccc(Nc2ccc(OCC(O)CN3CCOCC3)cc2)c([N+](=O)[O-])c1 (centres unmarked) [Compound 5f, 1-(4-((2,4-Dinitrophenyl)amino)phenoxy)-3-morpholinopropan-2-ol]	61.7 ± 9.1
CNCC(O)COc1ccc(Nc2ccc(C(F)(F)F)cc2[N+](=O)[O-])cc1 (centres unmarked) [Compound 15, 1-(Methylamino)-3-(4-((2-nitro-4-(trifluoromethyl)phenyl)amino)phenoxy)propan-2-ol]	66.6 ± 4.3

Further lines, results first:

inhibition at 10 µM [%]	Compound
18.8 ± 4	CN(C)CC(O)COc1ccc(Oc2ccc(C(F)(F)F)cc2[N+](=O)[O-])cc1 (centres unmarked) [Compound 6a, 1-(Dimethylamino)-3-(4-(2-nitro-4-(trifluoromethyl)phenoxy)phenoxy)propan-2-ol]
1.7 ± 6	CN(C)CC(O)COc1ccc(NC(=O)c2ccc(C(F)(F)F)cc2[N+](=O)[O-])cc1 (centres unmarked) [Compound 6b, N-(4-(3-(Dimethylamino)-2-hydroxypropoxy)phenyl)-2-nitro-4-(trifluoromethyl)benzamide]
4.2 ± 5.5	COC(=O)c1cc(C(F)(F)F)ccc1Nc1ccc(OCC(O)CN(C)C)cc1 (centres unmarked) [Compound 6c, Methyl 2-((4-(3-(dimethylamino)-2-hydroxypropoxy)phenyl)amino)-5-(trifluoromethyl)benzoate]
81.4 ± 5.6	CN(C)CCOc1ccc(Nc2ccc(C(F)(F)F)cc2[N+](=O)[O-])cc1 [Compound 18a, N-(4-(2-(Dimethylamino)ethoxy)phenyl)-2-nitro-4-(trifluoromethyl)aniline]
-2.1 ± 5.7	CN(C)CC(O)COc1ccc(Nc2ccc(C(F)(F)F)cc2C(=O)O)cc1 (centres unmarked) [Compound 10b, 2-((4-(3-(Dimethylamino)-2-hydroxypropoxy)phenyl)amino)-5-(trifluoromethyl)benzoic acid]
86.2 ± 6.8	CCN(CC)CCOc1ccc(Nc2ccc(C(F)(F)F)cc2[N+](=O)[O-])cc1 [Compound 17a, N-(4-(2-(Diethylamino)ethoxy)phenyl)-2-nitro-4-(trifluoromethyl)aniline]
5.8 ± 5.3	O=C(O)c1ccccc1Nc1ccc(OCC(O)CN2CCOCC2)cc1 (centres unmarked) [Compound 10a, 2-((4-(2-Hydroxy-3-morpholinopropoxy)phenyl)amino)benzoic acid]

Same assay, conditions: HEK293; 50 μM, HEK-293 cells, patch-clamp, mean ± SEM

inhibition at 50 µM [%]	Compound
21.8 ± 4.4	O=C(Cc1ccc(Cl)c(Cl)c1)NC1CCN(CC(O)COc2ccc(Nc3ccc(C(F)(F)F)cc3[N+](=O)[O-])cc2)CC1 (centres unmarked) [Compound 16d, 2-(3,4-Dichlorophenyl)-N-(1-(2-hydroxy-3-(4-((2-nitro-4-(trifluoromethyl)phenyl)amino)phenoxy)propyl)piperidin-4-yl)acetamide]

Same assay, conditions: whole-cell patch-clamp, dose–response fit

IC50 [nM]	Compound
892	CN(C)CCOc1ccc(Nc2ccc(C(F)(F)F)cc2[N+](=O)[O-])cc1 [Compound 18a, N-(4-(2-(Dimethylamino)ethoxy)phenyl)-2-nitro-4-(trifluoromethyl)aniline]
216	CN(C)CCOc1c(Br)cc(Nc2ccc(C(F)(F)F)cc2[N+](=O)[O-])cc1Br [Compound 18b, 3,5-Dibromo-4-(2-(dimethylamino)ethoxy)-N-(2-nitro-4-(trifluoromethyl)phenyl)aniline]
568	CCN(CC)CCOc1ccc(Nc2ccc(C(F)(F)F)cc2[N+](=O)[O-])cc1 [Compound 17a, N-(4-(2-(Diethylamino)ethoxy)phenyl)-2-nitro-4-(trifluoromethyl)aniline]
